According to patent publication US20220008359A1, “COMBINATION ANTI-CANCER PRODUCTS AND METHODS” (priority 2020, published 2022):
Marks after values point to notes of the source that are not given here.

Key:
H1975 cells = experiment: Trypan blue cell death assay, H1975 cells (wild type, afatinib- and osimertinib-resistant); type: cell-based, human; settings: osimertinib-resistant H1975 and H1650 cells, 24 h
Procedure: Detection of cell death by trypan blue assay. Cells were treated with vehicle control or with drugs alone or in combination for 24 h. At the indicated time points cells were harvested by trypsinization and centrifugation. Cell pellets were resuspended in PBS and mixed with trypan blue agent. Viability was determined microscopically using a hemocytometer. Five hundred cells from randomly chosen fields were counted and the number of dead cells was counted and expressed as a percentage of the total number of cells counted.
H1650, wild type sensitive and afatinib resistant (AR) H1975 and erlotinib resistant (ER) HCC827 cells were treated with vehicle, erlotinib (500 nM), afatinib (500 nM), GZ17-6.02 (2 mM curcumin final) or the drugs in combination for 24 h. […] In a separate study, cells were treated with vehicle, osimertinib (100 nM), GZ17-6.02 (2 mM curcumin final) or the drugs in combination for 24 h.
Osimertinib-resistant H1975 and H1650 cells were generated as described and studied to determine if GZ17-6.02 interacts with pemetrexed to kill NSCLC cells. H1975 and H1650 cells (wild type sensitive and osimertinib resistant (OR)) were treated with vehicle, erlotinib (500 nM), afatinib (500 nM), osimertinib (100 nM), GZ17-6.02 (2 mM curcumin final) or the drugs in combination for 24 h. […]

CD8+ T cells = experiment: Viability and effects on CD8+ T cells after 72 hours of exposure; type: cell-based
Procedure: (§1) In vitro assays designed to assess the viability and effects of GZ17-6.02, GZ17-6.02.02, its metabolites as single agents, and the metabolites in combination effects of CD8+ T cells and CD56+ natural killer cells after 72 hours of exposure. Test agents used included 6.02 (77% Isovanillin+13% Harmine+10% Curcumin), 6.02.02 (77% Isovanillin+13% Harmine+8.5% Curcumin sulfate tetrabutylammonium salt+1.5% Curcumin β-D-glucuronide), Curcumin metabolites combination (85% Curcumin sulfate tetrabutylammonium salt+15% Curcumin β-D-glucuronide), Curcumin metabolites single agents (single agent Curcumin sulfate tetrabutylammonium salt, or single agent Curcumin 3-D-glucuronide).

[1] = system: CD56+ natural killer cells; experiment: Viability and effects on CD56+ natural killer cells after 72 hours of exposure; type: cell-based
Procedure: as §1

[2] = system: H1975 cells (wild type sensitive); experiment: In-cell immunostaining of protein expression and phosphorylation, H1975 wild type cells; type: cell-based, human; settings: 1975 WT; 6 h; GZ17-6.02 2 mM final curcumin, osimertinib 100 nM; vehicle 100%
Procedure: (§2) […] Cells were fixed in place 6 hours after treatment and immunostaining of single cells performed to determine the levels of each protein/phosphor-protein (n=3+/−SD). * p<0.05 less than vehicle control; # p<0.05 greater than vehicle control.
(§3) Assessments of protein expression and protein phosphorylation. Multi-channel fluorescence HCS microscopes perform true in-cell western blotting. Three independent cultures derived from three thawed vials of cells of a tumor were sub-cultured into individual 96-well plates. Twenty-four hours after plating, the cells are transfected with a control plasmid or a control siRNA, or with an empty vector plasmid or with plasmids to express various proteins. After another 24 hours, the cells are ready for drug exposure(s). At various time-points after the initiation of drug exposure, cells are fixed in place using paraformaldehyde and using Triton X100 for permeabilization. Standard immunofluorescent blocking procedures are employed, followed by incubation of different wells with a variety of validated primary antibodies and subsequently validated fluorescent-tagged secondary antibodies are added to each well. The microscope determines the background fluorescence in the well and in parallel randomly determines the mean fluorescent intensity of 100 cells per well.

[3] = system: afatinib-resistant (AR) H1975 cells; experiment: In-cell immunostaining of protein expression and phosphorylation, afatinib-resistant H1975 cells; type: cell-based, human; settings: 1975 AR; 6 h; GZ17-6.02 2 mM final curcumin, osimertinib 100 nM; vehicle 100%
Procedure: as §2
Generation of erlotinib, afatinib and osimertinib-resistant cells. Cells were incubated in vitro with increasing concentrations of vehicle control or erlotinib or osimertinib until after ˜6 weeks the HCC827 and H1975 and H1650 cells grew with similar kinetics to sensitive cells in either erlotinib ([…]) or osimertinib ([…]), respectively. Afatinib-resistant cells were created in vivo by repeated high dosing until tumors disappeared and then regrew, as previously described.
as §3

H1650 cells (wild type) = experiment: In-cell immunostaining of protein expression and phosphorylation, H1650 wild type cells; type: cell-based, human; settings: 1650 WT; 6 h; GZ17-6.02 2 mM final curcumin, osimertinib 100 nM; vehicle 100%
Procedure: as §3

C#Cc1cccc(Nc2ncnc3cc(OCCOC)c(OCCOC)cc23)c1 [erlotinib, Erlotinib]
ability to enhance GZ17-6.02 killing (H1975 cells): abolished

Curcumin sulfate tetrabutylammonium salt
CD8 + T Cells % of control (CD8+ T cells; 0.03 μM): 107.62 % of control
CD8 + T Cells % of control (CD8+ T cells; 0.3 μM): 170.61 % of control
CD8 + T Cells % of control (CD8+ T cells; 3 μM): 154.26 % of control
CD8 + T Cells % of control (CD8+ T cells; 30 μM): 143.23 % of control
CD56 + NK Cells % of control ([1]; 0.03 μM): 104.14 % of control
CD56 + NK Cells % of control ([1]; 0.3 μM): 103.40 % of control
CD56 + NK Cells % of control ([1]; 3 μM): 110.77 % of control
CD56 + NK Cells % of control ([1]; 30 μM): 107.76 % of control

COc1cc(/C=C/C(=O)CC(=O)/C=C/c2ccc(O[C@@H]3O[C@H](C(=O)O)[C@@H](O)[C@H](O)[C@H]3O)c(OC)c2)ccc1O [Curcumin B-D-Glucuronide, Curcumin β-D-glucuronide]
CD8 + T Cells % of control (CD8+ T cells; 0.03 μM): 124.35 % of control
CD8 + T Cells % of control (CD8+ T cells; 0.3 μM): 114.54 % of control
CD8 + T Cells % of control (CD8+ T cells; 3 μM): 118.58 % of control
CD8 + T Cells % of control (CD8+ T cells; 30 μM): 110.23 % of control
CD56 + NK Cells % of control ([1]; 0.03 μM): 98.08 % of control
CD56 + NK Cells % of control ([1]; 0.3 μM): 100.22 % of control
CD56 + NK Cells % of control ([1]; 3 μM): 93.81 % of control
CD56 + NK Cells % of control ([1]; 30 μM): 95.28 % of control

C=CC(=O)Nc1cc(Nc2nccc(-c3cn(C)c4ccccc34)n2)c(OC)cc1N(C)CCN(C)C [osimertinib, Osimertinib]
ability to enhance GZ17-6.02 killing (H1975 cells): abolished

C=CC(=O)Nc1cc(Nc2nccc(-c3cn(C)c4ccccc34)n2)c(OC)cc1N(C)CCN(C)C [OSI]
ATG5 [2]: 111%
Beclin1 [2]: 113# %
CD95 [2]: 102%
CHOP [2]: 109%
ERBB1 [2]: 99%
ERBB2 [2]: 100%
ERBB3 [2]: 101%
ERBB4 [2]: 99%
ERK2 [2]: 99%
FAS-L [2]: 101%
FLIP-s [2]: 85* %
GRP78 [2]: 119# %
HDAC1 [2]: 97%
HDAC2 [2]: 99%
HDAC3 [2]: 96%
HDAC4 [2]: 93%
HDAC5 [2]: 100%
HDAC6 [2]: 105%
HDAC7 [2]: 103%
HDAC8 [2]: 99%
HDAC9 [2]: 98%
HDAC10 [2]: 99%
HDAC11 [2]: 96%
IDO1 [2]: 99%
JNK1/2 [2]: 101%
MHCA [2]: 96%
NOXA [2]: 100%
ODC [2]: 100%
P-AKT T308 [2]: 81* %
P-AMPKα T172 [2]: 101%
P-ATG13 S318 [2]: 126# %
P-ATM S1980 [2]: 100%
P-B1 [2]: 73* %
P-B2 [2]: 101%
P-B3 [2]: 100%
P-B4 [2]: 102%
P-ERK1/2 [2]: 70* %
P-JAK2 [2]: 83* %
P-JNK1/2 [2]: 89%
P-MEK1/2 [2]: 83* %
P-NFκB S536 [2]: 100%
P-PDGFRβ [2]: 89%
P-PERK T980 [2]: 109%
P-SRC Y416 [2]: 95%
P-SRC Y527 [2]: 102%
P-STAT3 Y705 [2]: 92%
P-STAT5 Y694 [2]: 88%
P-TAZ S89 [2]: 114# %
P-ULK1 S317 [2]: 105%
P-ULK1 S757 [2]: 63* %
P-YAP S127 [2]: 113# %
P-c-KIT [2]: 99%
P-c-MET [2]: 92%
P-eIF2α S51 [2]: 109%
P-mTOR S2448 [2]: 68* %
P-mTOR S2481 [2]: 68* %
P-β-catenin [2]: 111%
PD-L1 [2]: 99%
PD-L2 [2]: 97%
PDGFRβ [2]: 100%
PP1 [2]: 104%
PUMA [2]: 99%
TAZ [2]: 100%
Total ERK2 [2]: 99%
YAP [2]: 99%
c-KIT [2]: 98%
c-MET [2]: 101%
p70 S6K T389 [2]: 92%
β-catenin [2]: 98%
ATG5 [3]: 105%
Beclin1 [3]: 109%
CHOP [3]: 102%
ERBB1 [3]: 100%
ERBB2 [3]: 102%
ERBB3 [3]: 101%
ERBB4 [3]: 98%
FLIP-s [3]: 79* %
GRP78 [3]: 103# %
NOXA [3]: 100%
P-AKT T308 [3]: 86* %
P-AMPKα T172 [3]: 102%
P-ATG13 S318 [3]: 121# %
P-ATM S1980 [3]: 101%
P-B1 [3]: 76* %
P-B2 [3]: 101%
P-B3 [3]: 100%
P-B4 [3]: 97%
P-MEK1/2 [3]: 82* %
P-PERK T980 [3]: 111%
P-STAT3 Y705 [3]: 92%
P-STAT5 Y694 [3]: 95%
P-ULK1 S317 [3]: 99%
P-ULK1 S757 [3]: 65* %
P-eIF2α S51 [3]: 105%
P-mTOR S2448 [3]: 66* %
P-mTOR S2481 [3]: 71* %
PP1 [3]: 112%
PUMA [3]: 98%
Total ERK2 [3]: 100%
p70 S6K T389 [3]: 99%
ATG5 (H1650 cells (wild type)): 106%
Beclin1 (H1650 cells (wild type)): 103%
CD95 (H1650 cells (wild type)): 100%
CHOP (H1650 cells (wild type)): 106%
ERBB1 (H1650 cells (wild type)): 98%
ERBB2 (H1650 cells (wild type)): 94%
ERBB3 (H1650 cells (wild type)): 100%
ERBB4 (H1650 cells (wild type)): 100%
ERK2 (H1650 cells (wild type)): 100%
FAS-L (H1650 cells (wild type)): 104%
FLIP-s (H1650 cells (wild type)): 102%
GRP78 (H1650 cells (wild type)): 111%
HDAC1 (H1650 cells (wild type)): 99%
HDAC2 (H1650 cells (wild type)): 98%
HDAC3 (H1650 cells (wild type)): 98%
HDAC4 (H1650 cells (wild type)): 101%
HDAC5 (H1650 cells (wild type)): 99%
HDAC6 (H1650 cells (wild type)): 98%
HDAC7 (H1650 cells (wild type)): 99%
HDAC8 (H1650 cells (wild type)): 101%
HDAC9 (H1650 cells (wild type)): 100%
HDAC10 (H1650 cells (wild type)): 98%
HDAC11 (H1650 cells (wild type)): 100%
IDO1 (H1650 cells (wild type)): 100%
JNK1/2 (H1650 cells (wild type)): 104%
MHCA (H1650 cells (wild type)): 103%
NOXA (H1650 cells (wild type)): 101%
ODC (H1650 cells (wild type)): 104%
P-AKT T308 (H1650 cells (wild type)): 90%
P-AMPKα T172 (H1650 cells (wild type)): 98%
P-ATG13 S318 (H1650 cells (wild type)): 115# %
P-ATM S1980 (H1650 cells (wild type)): 98%
P-B1 (H1650 cells (wild type)): 61* %
P-B2 (H1650 cells (wild type)): 97%
P-B3 (H1650 cells (wild type)): 96%
P-B4 (H1650 cells (wild type)): 96%
P-ERK1/2 (H1650 cells (wild type)): 82* %
P-JAK2 (H1650 cells (wild type)): 86* %
P-JNK1/2 (H1650 cells (wild type)): 91%
P-MEK1/2 (H1650 cells (wild type)): 97%
P-NFκB S536 (H1650 cells (wild type)): 83* %
P-PDGFRβ (H1650 cells (wild type)): 93%
P-PERK T980 (H1650 cells (wild type)): 104%
P-SRC Y416 (H1650 cells (wild type)): 83* %
P-SRC Y527 (H1650 cells (wild type)): 105%
P-STAT3 Y705 (H1650 cells (wild type)): 95%
P-STAT5 Y694 (H1650 cells (wild type)): 98%
P-TAZ S89 (H1650 cells (wild type)): 101%
P-ULK1 S317 (H1650 cells (wild type)): 107%
P-ULK1 S757 (H1650 cells (wild type)): 81* %
P-YAP S127 (H1650 cells (wild type)): 102%
P-c-KIT (H1650 cells (wild type)): 92%
P-c-MET (H1650 cells (wild type)): 94%
P-eIF2α S51 (H1650 cells (wild type)): 114%
P-mTOR S2448 (H1650 cells (wild type)): 96%
P-mTOR S2481 (H1650 cells (wild type)): 87* %
P-β-catenin (H1650 cells (wild type)): 102%
PD-L1 (H1650 cells (wild type)): 97%
PD-L2 (H1650 cells (wild type)): 97%
PDGFRβ (H1650 cells (wild type)): 106%
PP1 (H1650 cells (wild type)): 103%
PUMA (H1650 cells (wild type)): 100%
TAZ (H1650 cells (wild type)): 101%
Total ERK2 (H1650 cells (wild type)): 100%
YAP (H1650 cells (wild type)): 98%
c-KIT (H1650 cells (wild type)): 100%
c-MET (H1650 cells (wild type)): 98%
p70 S6K T389 (H1650 cells (wild type)): 99%
β-catenin (H1650 cells (wild type)): 101%
